This assay has as its target T1, Glucokinase (Homo sapiens, UniProt P35557).
T1 construct: purchased ProteinOne Inc
T1 sequence (P35557 1-465): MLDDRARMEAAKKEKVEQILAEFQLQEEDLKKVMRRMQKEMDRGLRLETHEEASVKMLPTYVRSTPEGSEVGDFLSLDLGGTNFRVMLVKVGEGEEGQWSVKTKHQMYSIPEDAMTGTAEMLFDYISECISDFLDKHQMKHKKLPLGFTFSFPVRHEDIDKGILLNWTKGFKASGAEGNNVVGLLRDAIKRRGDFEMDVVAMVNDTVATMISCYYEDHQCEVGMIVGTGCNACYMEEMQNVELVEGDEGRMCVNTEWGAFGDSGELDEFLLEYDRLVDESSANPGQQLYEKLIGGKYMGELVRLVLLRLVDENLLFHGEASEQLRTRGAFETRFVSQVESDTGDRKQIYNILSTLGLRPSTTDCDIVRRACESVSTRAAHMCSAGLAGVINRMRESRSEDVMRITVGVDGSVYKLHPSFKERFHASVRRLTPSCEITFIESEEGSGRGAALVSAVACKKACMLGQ
The assay can be described thus: Glucokinase activation assay (NADPH absorbance at 340 nm). Type of assay: biochemical. Particulars: glucokinase (ProteinOne Inc.), 5 mM D(+)-glucose, 24° C., 90 minutes. The essentials: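 Glucokinase (100 ng/uL) coupled to G6PDH in 25 mM HEPES pH 7 with 5 mM D(+)-glucose, 1 mM ATP, 1 mM NADP; compounds added.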

Consider “3-[2-(2-methoxyphenyl)ethyl]-5-(2-methoxy-(1S)-methyl-ethoxy)-N-(thiazol-2-yl)-benzamide [Example 89]”, for which the EC50 amounted to 28.4 nM.
